The subject of series [1] is NCI-N87 cancer cell line tumors. The experiment in a line: in vivo trial, cancer cell xenografts on chicken egg chorioallantoic membrane (CAM): tumor weight. The following applies: for Mean tumor size: five doses E10-E17, 1.5 mg/kg pembrolizumab, 1.8 mg/kg 33DFTG, weighed E18, PBS control 30.6. The method, then:
(§1) The study was performed by Inovotion SAS (La Tronche, France). Fertilized chicken eggs were incubated at 37.5° C. with 50% relative humidity for 9 days (E9), when the chorioallantoic membrane (CAM) was dropped down by drilling a small hole through the eggshell into the air sac, and a 1 cm^2 window was cut in the eggshell above the CAM. The NCI-N87 cell line was cultivated in RPMI-1640 medium supplemented with 10% FBS and 1% penicillin/streptomycin. On day E9, cells were detached by trypsin, washed with complete medium and suspended in graft medium. An inoculum of 2 million cells was added onto the CAM of each egg. […] Living grafted eggs were randomized into groups and were then treated on day E10, E11.5, E13, E14.5 and E17 (five doses) by dropping 100 μl of vehicle (PBS) and compounds (alone or in combination) onto the tumor. On day 18 (E18) the upper portion of the CAM was removed, washed in PBS and then directly transferred in PFA (fixation for 48 h). The tumors were then carefully cut away from normal CAM tissue and weighed. Eggs were checked at each treatment time, or at least every two days, for viability during the study. At the end of the study, the number of dead embryos was counted and combined with the observation of eventual visible macroscopic abnormalities (observation done during the sample collection) to evaluate the toxicity.

For series [2], the system named is egg embryos. The experiment in a line: in vivo CAM trial: embryo viability (toxicity). The method, then: as §1
The target in series [3] is T1, Galectin-3 (Homo sapiens, UniProt P17931). Conditions: HSC-2 cells, 2 μM 33DFTG for 2 days; control treatment 1247. The method, then: (§2) After the incubation, cells were stained with Alexa Fluor 488-conjugated human recombinant Galectin-1, and Alexa Fluor 488-conjugated human recombinant Galectin-3 (both from Abcam, Cambridge, United Kingdom; and both at 10 μg/ml) for 45 minutes at +4° C. Cells were washed and stored on ice in the dark until analysed by FACSAriaII flow cytometer.
(§3) In parallel, untreated cells were cultured in normal cell culture medium. For flow cytometry analysis, cells were detached with trypsin, washed, and stained with AlexaFluor488-conjugated Galectin-1 and Galectin-3 proteins as above. FACS was performed as above.

Series [4] addresses T2, Galectin-1 (Homo sapiens, UniProt P09382).
T2 construct: purchased Abcam, Cambridge, United Kingdom
In words: Alexa Fluor 488-Galectin-1 binding to HSC-2 cells by FACS. Type of series: cell-based. The method, then: as §2, §3

Series [5] has as its target T1, Galectin-3. The following applies: SKOV-3 cells, 2 μM 33DFTG for 3 days; Galectin-3 10 μg/ml; control treatment 1940. The method, then: as §2
The target in series [6] is T2, Galectin-1. The experiment in a line: Alexa Fluor 488-Galectin-1 binding to SKOV-3 cells by FACS. Format: cell-based. The procedure: as §2

Entries after “also recorded” stand apart in the source; their conditions may differ. Like-named read-outs stand apart in the source and are kept apart here.

Consider two molecules from patent US20210138080A1, “CONJUGATES” (GLYKOS BIOMEDICAL OY, priority 2018, published 2021).

T2 sequence (P09382 whole entry): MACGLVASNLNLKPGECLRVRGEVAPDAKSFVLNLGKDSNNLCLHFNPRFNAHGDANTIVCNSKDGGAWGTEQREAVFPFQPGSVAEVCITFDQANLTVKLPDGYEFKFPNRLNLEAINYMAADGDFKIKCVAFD
T1 sequence (P17931 whole entry): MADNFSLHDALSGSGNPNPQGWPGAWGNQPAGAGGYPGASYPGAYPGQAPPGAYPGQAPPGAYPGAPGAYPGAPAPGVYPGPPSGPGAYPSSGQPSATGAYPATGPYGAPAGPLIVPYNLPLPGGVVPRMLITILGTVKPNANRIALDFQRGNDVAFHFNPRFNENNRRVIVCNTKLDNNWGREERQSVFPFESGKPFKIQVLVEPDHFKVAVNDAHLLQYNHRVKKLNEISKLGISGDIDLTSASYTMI

In the case of “Pembrolizumab: pembrolizumab (Keytruda, Merck)”, in series [1], the Mean tumor size amounted to 33.5 mg. In addition, the “tumor size / therapeutic efficacy compared to control group (in words)” value in series [1] (repeated dose) is “neither pembrolizumab alone or 33DFTG alone showed significant difference”. Moreover, the “% alive” value in series [2] (egg embryos at end of study, PBS control 81) came out at 73%.
For the molecule `OC[C@H]1O[C@@H](S[C@@H]2O[C@H](CO)[C@H](O)[C@H](n3cc(-c4cccc(F)c4)nn3)[C@H]2O)[C@H](O)[C@@H](n2cc(-c3cccc(F)c3)nn2)[C@H]1O` [33DFTG, 3,3′-dideoxy-3,3′-bis-[4-(3-fluorophenyl)-1H-1,2,3-triazol-1-yl]-1,1′-sulfanediyl-di-β-D-galactopyranoside], the Mean tumor size in series [1] was found to be 35.8 mg. The “Mean fluorescence intensity, Galectin-3” value in series [3] was 129; in series [5] it was 165. For the same molecule, the “binding of Galectin-1 to the cells (in words)” value in series [4] (2 μM 33DFTG) and in series [6] (2 μM 33DFTG) was “effective inhibition; also recorded: clearly decreased” in each case. The “Mean fluorescence intensity, Galectin-1” value in series [4] (2 μM 33DFTG for 2 days, control treatment 521) is 226; in series [6] (2 μM 33DFTG for 3 days, Galectin-1 10 μg/ml, control treatment 439) it was 186. In addition, in series [2] (chicken, in vivo, 8 days), the “% alive” value is on record as 64%.
